{"source": "patent US12543736B2", "about": "“Herbicidal compositions comprising mesotrione” (BASF SE, priority 2024, dated 2026)", "key": {"Zea mays": {"system": "Zea mays", "test": "Example 4 post-emergence application A-1, B and C-19, ZEAMX", "type": "in vivo", "settings": "growth stage 12, 21 DAT, g ai/ha: A-1 2, B 50, C-19 30", "experimental": "(§1) In the examples below, using the method of S. R. Colby (1967) “Calculating synergistic and antagonistic responses of herbicide combinations”, Weeds 15, p. 22ff., the value E, which is expected if the activity of the individual active compounds is only additive, was calculated:\n(§2) [formula] • where • X=percent activity using active herbicide A at an application rate a; • Y=percent activity using active herbicide B (e.g. mesotrione) at an application rate b; • E=expected activity (in %) by A+B at application rates a+b.\n(§3) If the value found experimentally is higher than the value E calculated according to Colby, a synergistic effect is present.\n(§4) Evaluation was carried out using a scale from 0 to 100. 100 means no emergence of the plants, or complete destruction of at least the above-ground parts, and 0 means no damage or normal course of growth. A good herbicidal activity is given at values of at least 70, and very good herbicidal activity is given at values of at least 85.\n(§5) Post-Emergence Application of Herbicide A-1 (A-1), Mesotrione (B) and Pyroxasulfone (C-19)\n(§6) Herbicide A-1 (342 g/l), mesotrione (100 g/l) and pyroxasulfone (500 g/l) were, together with addition of 0.5 v/v % MSO (methylated sed oil) as adjuvant, formulated in water as distribution medium (water volume 200 l/ha) and sprayed with commercial flat fan nozzles."}, "Commelina benghalensis": {"system": "Commelina benghalensis", "test": "Example 4 post-emergence application A-1, B and C-19, COMBE", "type": "in vivo", "settings": "growth stage 13, 21 DAT, g ai/ha: A-1 1, B 50, C-19 30", "experimental": "as §1, §2, §3, §4, §5, §6"}}, "data": [{"smiles": "Cn1nc(C(F)(F)F)c(CS(=O)(=O)C2=NOC(C)(C)C2)c1OC(F)F", "note": "[C-19, pyroxasulfone]", "values": [{"measurement": "% herbicidal activity", "setting": "Zea mays", "value": 0, "unit": "%"}, {"measurement": "% herbicidal activity", "setting": "Commelina benghalensis", "value": 15, "unit": "%"}]}]}
